For data set [1], the system named is HePG-2. The experiment in a line: MTT cytotoxicity assay, HePG-2. It counts as cell-based. The note with it: Homo sapiens, HepG2. The procedure:
(§1) The cytotoxic activity was assessed using the 3-(4,5-dimethylthiazol-2-yl)-2,5-diphenyl tetrazolium bromide (MTT) colorimetric assay, as reported previously. Doxorubicin was used as a reference standard, and DMSO was used as a negative control. Briefly, the designated cell lines were cultured at a concentration of 5 × 10^4 cell/well in 96-well plates. The cells were incubated for 24 h under optimum conditions. Following this, the designated molecules were introduced (in serial dilutions from 0 to 50 μg/mL), and the cells were incubated for an additional 24 h. Following this, the media were withdrawn, and 100 μL of fresh medium was added. Then, 10 µL of the 12 mM MTT stock solution was administered to each well. The plates were then incubated for 4 h. […] An 85-μL aliquot of the media was removed from the wells, and 50 µL of DMSO was added to each well and mixed thoroughly with the pipette and incubated at 37 °C for 10 min. Then, the optical density was measured at 590 nm with the microplate reader (Sunrise, TECAN, Inc., Morrisville, NC, USA).
A general note: Tetrazolium dyes change colour on reduction, which living cells bring about.

Data set [2] relates to HCT-116. In words: MTT cytotoxicity assay, HCT-116. The class given is cell-based. The note with it: Homo sapiens, HCT-116, read-out: IC50 HCT-116; MTT, colon cancer cells.
Experimental: (§2) The cytotoxic activity was assessed using the 3-(4,5-dimethylthiazol-2-yl)-2,5-diphenyl tetrazolium bromide (MTT) colorimetric assay, as reported previously [62, 63]. […] Briefly, the designated cell lines were cultured at a concentration of 5 × 10^4 cell/well in 96-well plates. The cells were incubated for 24 h under optimum conditions. Following this, the designated molecules were introduced (in serial dilutions from 0 to 50 μg/mL), and the cells were incubated for an additional 24 h. Following this, the media were withdrawn, and 100 μL of fresh medium was added. Then, 10 µL of the 12 mM MTT stock solution was administered to each well. The plates were then incubated for 4 h. Then, the cells were exposed to different compounds at the desired concentrations (0.01, 0.1, 1, 10, and 100 µM) or to 1% dimethyl sulfoxide (DMSO) for 48 and 72 h. […] Then, the optical density was measured at 590 nm with the microplate reader (Sunrise, TECAN, Inc., Morrisville, NC, USA).
Data set [3] concerns MCF-7. In words: MTT cytotoxicity assay, MCF-7. As to conditions: Homo sapiens, MCF7; MTT, breast cancer cells; read-out: IC50 MCF-7. The class given is cell-based.
Experimental: as §2
Data set [4] deals with WI-38. The experiment in a line: MTT assay on normal cell line WI-38. The note with it: Homo sapiens, WI-38, MTT, normal human diploid fibroblasts. It counts as cell-based. On the procedure:
According to our design, the tested compounds are classified into four categories based on the length and the chemotype of the spacer (Figure 3). In the first category, we used monosubstituted hydrazone linker. […] The second category is represented by […] hydrazone linker.
as §1

Setting [5] is: MTT, liver cancer cells, read-out: IC50 HePG-2.

Read-outs that look alike come from different tables or passages of the source.

What is called IC50 is the concentration needed to halve the response being measured. What is called melting point is the temperature of the solid-liquid transition. `COc1ccc(C(C)=NNc2nc(C)nc3c2cnn3-c2ccccc2)cc1` [Compound 5k, 4-(2-(1-(4-Methoxyphenyl)ethylidene)hydrazinyl)-6-methyl-1-phenyl-1H-pyrazolo[3,4-d]pyrimidine] came in with a melting point of 235 to 237 °C. In addition, the IC50 in data set [1] (setting [5]) worked out at 91.6 ± 5.1 µM. In data set [2], the IC50 amounted to 78 ± 4.2 µM. Further, the IC50 in data set [3] was 88.3 ± 4.7 µM.

`CC(=NNc1nc(C)nc2c1cnn2-c1ccccc1)c1ccc(Cl)cc1Br` [Compound 5l, 4-(2-(1-(2-Bromo-4-chlorophenyl)ethylidene)hydrazineyl)-6-methyl-1-phenyl-1H-pyrazolo[3,4-d] pyrimidine]: the melting point lay in the range of 257 to 259 °C. Besides, the IC50 in data set [1] (setting [5]) amounted to 17.1 ± 1.3 µM. Also, the IC50 in data set [2] worked out at 14.6 ± 1.1 µM. Also, the IC50 in data set [3] was 29.2 ± 1.8 µM.

For `Cc1nc2c(cnn2-c2ccccc2)c2nncn12` [Compound 6a, 5-Methyl-7-phenyl-7H-pyrazolo[4,3-e][1,2,4]triazolo[4,3-c]pyrimidine], the melting point lay in the range of 250 to 252 °C. The IC50 in data set [1] (setting [5]) amounted to 37.5 ± 2.7 µM. Further, in data set [2], the IC50 turned out to be 34.6 ± 2.2 µM. Further, the IC50 in data set [3] was determined as 49.6 ± 3.1 µM.

Molecule `Cc1nc2c(cnn2-c2ccccc2)c2nnc(C(F)(F)F)n12` [Compound 6b, 5-Methyl-7-phenyl-3-(trifluoromethyl)-7H-pyrazolo[4,3-e][1,2,4]triazolo[4,3-c]pyrimidine] displayed a melting point of 267 to 269 °C. Besides, the IC50 in data set [1] (setting [5]) stood at 25.2 ± 2 µM. In addition, the 50% inhibitory concentration (IC50) in data set [2] stood at 26.1 ± 1.8 µM. For the same molecule, in data set [3], the IC50 was determined as 39.1 ± 2.5 µM.

The molecule `Cc1nc2c(cnn2-c2ccccc2)c2nnc(C(Cl)(Cl)Cl)n12` [Compound 6c, 5-Methyl-7-phenyl-3-(trichloromethyl)-7H-pyrazolo[4,3-e][1,2,4]triazolo[4,3-c]pyrimidine] showed a melting point of 250 to 252 °C. Further, the concentration for half-maximal inhibition (IC50) in data set [1] (setting [5]) was determined as 56.2 ± 3.5 µM. In data set [2], the 50% inhibitory concentration (IC50) came out at 37.2 ± 2.4 µM. Further, in data set [3], the IC50 amounted to 54.2 ± 3.4 µM.

`CC(=O)CC(C)=Nc1nc(C)nc2c1cnn2-c1ccccc1` [Compound 6d, 4-((6-Methyl-1-phenyl-1H-pyrazolo[3,4-d]pyrimidin-4-yl)imino)pentan-2-one]: the melting point lay in the range of 240 to 242 °C. Further, in data set [1] (setting [5]), the IC50 came out at 89.2 ± 4.7 µM. Moreover, the IC50 in data set [2] was determined as 93.4 ± 5.2 µM. For the same molecule, the IC50 in data set [3] stood at 84.6 ± 4.6 µM.

On to `Cc1nc(NN2C(=O)CCC2=O)c2cnn(-c3ccccc3)c2n1` [Compound 7, 1-((6-Methyl-1-phenyl-1H-pyrazolo[3,4-d]pyrimidin-4-yl)amino)pyrrolidine-2,5-dione], for which the melting point lay in the range of 280 to 282 °C. For the same molecule, the IC50 in data set [1] (setting [5]) was found to be 87.2 ± 4.5 µM. The IC50 in data set [2] turned out to be 73.5 ± 3.8 µM. Further, the IC50 in data set [3] was 81 ± 4.6 µM.

For the molecule `CCNC(=S)NNc1nc(C)nc2c1cnn2-c1ccccc1` [Compound 9a, N-Ethyl-2-(6-methyl-1-phenyl-1H-pyrazolo[3,4-d]pyrimidin-4-yl)hydrazinecarbothioamide], the melting point fell in the range of 278 to 280 °C. In addition, the IC50 in data set [1] (setting [5]) turned out to be 5.97 ± 0.3 µM. For the same molecule, the IC50 in data set [2] was found to be 2.96 ± 0.1 µM. For the same molecule, the IC50 in data set [3] worked out at 7.61 ± 0.4 µM.

In the case of `CCCCNC(=S)NNc1nc(C)nc2c1cnn2-c1ccccc1` [Compound 9c, N-Butyl-2-(6-methyl-1-phenyl-1H-pyrazolo[3,4-d]pyrimidin-4-yl)hydrazinecarbothioamide], the melting point was 270 to 272 °C. Besides, the IC50 in data set [1] (setting [5]) was found to be 20.3 ± 1.6 µM. In addition, the IC50 in data set [2] was determined as 16.6 ± 1.2 µM. The IC50 in data set [3] was 31.4 ± 1.9 µM.

For `C=CNC(=S)NNc1nc(C)nc2c1cnn2-c1ccccc1` [Compound 9d, 2-(6-Methyl-1-phenyl-1H-pyrazolo[3,4-d]pyrimidin-4-yl)-N-vinylhydrazine-1-carbothioamide], the melting point was 268 to 270 °C. Moreover, the IC50 in data set [1] (setting [5]) was determined as 32.6 ± 2.4 µM. In data set [2], the IC50 was 19.7 ± 1.4 µM. Further, the IC50 in data set [3] came to 35.2 ± 2.2 µM.

As for `COc1cccc2c1C(=O)c1c(O)c3c(c(O)c1C2=O)C[C@@](O)(C(=O)CO)C[C@@H]3O[C@H]1C[C@H](N)[C@H](O)[C@H](C)O1` [DOX, Doxorubicin, reference compound], the IC50 came to 4.5 ± 0.2 µM in data set [1] (24 h incubation, read-out: IC50 HePG-2 24 h); 3.24 ± 0.2 µM in data set [1] (48 h incubation, read-out: IC50 HePG-2 48 h); 1.07 ± 0.1 µM in data set [1] (72 h incubation, read-out: IC50 HePG-2 72 h); 4.5 ± 0.2 µM in data set [1] (setting [5]); 10.6 ± 0.47 µM in data set [4].

These data come from paper PMC10573254, “Development of Novel Class of Phenylpyrazolo[3,4-d]pyrimidine-Based Analogs with Potent Anticancer Activity and Multitarget Enzyme Inhibition Supported by Docking Studies” (International Journal of Molecular Sciences, 2023).
